# In ChEMBL document CHEMBL5465560, “Selectivity Literature for EUbOPEN Chemogenomic Library” (2024):
# How the values were obtained:
# [1] = target: Sigma intracellular receptor 2 (Homo sapiens) (UniProt Q5BJF2); experiment: Selectivity interaction (GPCR panel (PDSP screen)) EUB0000311b TMEM97; conditions: at 10 µM
# [2] = target: T1, Serine/threonine-protein kinase 17A (Homo sapiens) (UniProt Q9UEE5); experiment: Selectivity interaction (KinomeScan (DiscoverX)) EUB0001049a STK17A; conditions: at 1 µM
# T1 sequence (whole entry): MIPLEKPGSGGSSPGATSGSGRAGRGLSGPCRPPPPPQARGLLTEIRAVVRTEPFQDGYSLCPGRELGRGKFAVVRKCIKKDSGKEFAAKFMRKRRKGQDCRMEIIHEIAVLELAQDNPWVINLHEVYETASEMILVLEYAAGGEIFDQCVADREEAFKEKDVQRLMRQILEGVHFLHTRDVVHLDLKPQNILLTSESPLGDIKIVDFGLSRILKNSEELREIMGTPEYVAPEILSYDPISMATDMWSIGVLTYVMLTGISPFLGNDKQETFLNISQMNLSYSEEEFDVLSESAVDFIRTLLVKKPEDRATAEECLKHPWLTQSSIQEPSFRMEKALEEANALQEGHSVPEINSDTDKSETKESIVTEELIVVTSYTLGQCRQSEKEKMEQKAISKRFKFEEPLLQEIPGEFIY
# [3] = target: Glycogen synthase kinase-3 alpha (Homo sapiens, UniProt P49840); experiment: Selectivity interaction (Millipore kinase profiler) EUB0000124b GSK3A; conditions: at 10 µM
# [4] = target: Protein-tyrosine kinase 6 (Homo sapiens, UniProt Q13882); experiment: Selectivity interaction (KinomeScan (DiscoverX)) EUB0000666a PTK6; conditions: at 10 µM
# [5] = target: Calcium/calmodulin-dependent protein kinase kinase 1 (Homo sapiens) (UniProt Q8N5S9); experiment: Selectivity interaction (KinomeScan (DiscoverX)) EUB0000666a CAMKK1; conditions: at 10 µM
# [6] = target: Endothelin receptor type B (Homo sapiens) (UniProt P24530); experiment: Selectivity interaction (Eurofins CEREP Diversity Profile (receptors and ion channels)) EUB0000279b EDNRB; conditions: at 10 µM
# [7] = target: Casein kinase I isoform alpha (Homo sapiens, UniProt P48729); experiment: Selectivity interaction (ActivX KiNativ screen (kinase selectivity in THP-1 cell lysates)) EUB0000639a CSNK1A1; type: subcellular; conditions: lysate, at 0.01 µM
# [8] = target: Ribosomal protein S6 kinase alpha-3 (Homo sapiens, UniProt P51812); experiment: Selectivity interaction (ActivX KiNativ screen (kinase selectivity in THP-1 cell lysates)) EUB0000639a RPS6KA3; type: subcellular; conditions: lysate, at 1 µM
# [9] = target: T2, Mitogen-activated protein kinase kinase kinase 5 (Homo sapiens) (UniProt Q99683); experiment: Selectivity interaction (Kinase panel (Invitrogen)) EUB0000639a MAP3K5; conditions: at 200 nM
# T2 sequence (whole entry): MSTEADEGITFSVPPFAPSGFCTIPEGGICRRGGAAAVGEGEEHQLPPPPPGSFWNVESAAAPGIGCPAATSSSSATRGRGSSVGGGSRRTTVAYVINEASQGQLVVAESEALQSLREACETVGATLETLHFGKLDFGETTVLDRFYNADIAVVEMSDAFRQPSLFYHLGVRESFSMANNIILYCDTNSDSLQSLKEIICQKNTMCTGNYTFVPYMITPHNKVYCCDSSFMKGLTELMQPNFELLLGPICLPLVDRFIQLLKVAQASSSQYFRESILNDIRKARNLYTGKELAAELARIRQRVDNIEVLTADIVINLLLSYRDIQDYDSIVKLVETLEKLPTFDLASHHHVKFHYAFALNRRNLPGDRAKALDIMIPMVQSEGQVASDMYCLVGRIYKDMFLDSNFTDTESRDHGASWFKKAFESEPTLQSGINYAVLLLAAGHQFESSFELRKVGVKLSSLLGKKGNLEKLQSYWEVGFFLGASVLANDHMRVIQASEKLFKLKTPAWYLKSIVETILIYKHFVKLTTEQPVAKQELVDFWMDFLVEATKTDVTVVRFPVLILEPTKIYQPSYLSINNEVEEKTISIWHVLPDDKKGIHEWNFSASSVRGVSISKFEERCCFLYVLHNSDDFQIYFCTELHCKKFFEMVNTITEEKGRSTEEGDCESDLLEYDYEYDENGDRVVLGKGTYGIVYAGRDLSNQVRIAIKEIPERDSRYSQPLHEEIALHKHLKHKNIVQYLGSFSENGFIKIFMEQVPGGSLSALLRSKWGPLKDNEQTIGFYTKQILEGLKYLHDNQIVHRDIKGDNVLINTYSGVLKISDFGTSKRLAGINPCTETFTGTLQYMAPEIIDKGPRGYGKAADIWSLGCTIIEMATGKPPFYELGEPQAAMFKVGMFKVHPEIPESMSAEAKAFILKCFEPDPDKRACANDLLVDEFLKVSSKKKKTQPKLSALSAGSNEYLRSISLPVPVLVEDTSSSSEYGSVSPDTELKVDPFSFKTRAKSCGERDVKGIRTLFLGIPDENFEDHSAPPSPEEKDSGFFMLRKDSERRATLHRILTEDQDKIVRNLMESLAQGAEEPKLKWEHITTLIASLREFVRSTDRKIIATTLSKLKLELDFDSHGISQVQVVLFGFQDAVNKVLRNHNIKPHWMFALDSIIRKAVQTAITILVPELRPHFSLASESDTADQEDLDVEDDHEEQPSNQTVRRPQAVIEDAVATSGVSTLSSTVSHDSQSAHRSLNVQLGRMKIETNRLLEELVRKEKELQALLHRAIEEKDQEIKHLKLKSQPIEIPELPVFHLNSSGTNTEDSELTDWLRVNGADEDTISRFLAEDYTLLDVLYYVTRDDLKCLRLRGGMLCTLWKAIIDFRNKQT
# [10] = target: Serine/threonine-protein kinase SBK1 (Homo sapiens) (UniProt Q52WX2); experiment: Selectivity interaction (KinomeScan (DiscoverX)) EUB0000618a SBK1; conditions: at 10 µM
# [11] = target: Serine/threonine-protein kinase Nek6 (Homo sapiens) (UniProt Q9HC98); experiment: Selectivity interaction (ProQinase) EUB0000171b NEK6
# Chain of Serine/threonine-protein kinase Nek6 (Homo sapiens) (Q9HC98 whole entry): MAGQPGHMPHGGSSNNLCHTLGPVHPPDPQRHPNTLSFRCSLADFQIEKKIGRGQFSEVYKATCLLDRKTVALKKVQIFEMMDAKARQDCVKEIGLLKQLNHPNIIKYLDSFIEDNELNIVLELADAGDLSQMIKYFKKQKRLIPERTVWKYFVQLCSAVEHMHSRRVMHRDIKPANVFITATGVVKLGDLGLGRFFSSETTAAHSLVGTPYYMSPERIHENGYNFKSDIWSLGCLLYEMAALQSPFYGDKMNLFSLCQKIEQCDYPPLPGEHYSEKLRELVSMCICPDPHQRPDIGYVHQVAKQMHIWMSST
# Chain of Sigma intracellular receptor 2 (Homo sapiens) (Q5BJF2 whole entry): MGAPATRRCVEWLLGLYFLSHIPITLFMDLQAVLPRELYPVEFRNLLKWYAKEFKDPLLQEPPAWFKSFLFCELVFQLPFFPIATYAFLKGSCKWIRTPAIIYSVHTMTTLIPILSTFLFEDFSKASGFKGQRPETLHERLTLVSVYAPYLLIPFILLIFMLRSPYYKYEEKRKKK
# Chain of Endothelin receptor type B (Homo sapiens) (P24530 whole entry, canonical isoform): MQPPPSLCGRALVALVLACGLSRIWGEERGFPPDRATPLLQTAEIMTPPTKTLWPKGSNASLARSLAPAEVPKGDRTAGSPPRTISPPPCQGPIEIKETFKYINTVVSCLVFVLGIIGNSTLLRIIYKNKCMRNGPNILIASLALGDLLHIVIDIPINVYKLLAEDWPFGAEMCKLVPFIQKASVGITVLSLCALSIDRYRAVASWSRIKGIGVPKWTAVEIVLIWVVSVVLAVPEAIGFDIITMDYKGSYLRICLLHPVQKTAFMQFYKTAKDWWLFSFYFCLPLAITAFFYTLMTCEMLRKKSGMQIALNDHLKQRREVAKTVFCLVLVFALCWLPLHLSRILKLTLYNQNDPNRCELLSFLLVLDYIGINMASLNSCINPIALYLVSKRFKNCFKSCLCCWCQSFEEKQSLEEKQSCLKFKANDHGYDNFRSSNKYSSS
# Chain of Calcium/calmodulin-dependent protein kinase kinase 1 (Homo sapiens) (Q8N5S9 whole entry, looked up): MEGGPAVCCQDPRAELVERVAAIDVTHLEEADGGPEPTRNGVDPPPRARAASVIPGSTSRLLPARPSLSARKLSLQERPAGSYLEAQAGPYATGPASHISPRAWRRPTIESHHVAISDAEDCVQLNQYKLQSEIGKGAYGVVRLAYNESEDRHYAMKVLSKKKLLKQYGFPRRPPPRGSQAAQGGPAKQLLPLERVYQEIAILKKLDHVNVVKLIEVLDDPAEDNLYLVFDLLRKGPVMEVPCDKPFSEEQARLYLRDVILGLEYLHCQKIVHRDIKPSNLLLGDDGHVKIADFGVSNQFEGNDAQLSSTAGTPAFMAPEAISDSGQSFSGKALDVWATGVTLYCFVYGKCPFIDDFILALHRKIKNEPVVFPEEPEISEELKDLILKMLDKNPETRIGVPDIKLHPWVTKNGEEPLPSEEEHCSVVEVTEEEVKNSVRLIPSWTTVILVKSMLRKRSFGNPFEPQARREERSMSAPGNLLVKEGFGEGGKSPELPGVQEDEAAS
# Chain of Glycogen synthase kinase-3 alpha (P49840 2-483 limits assumed): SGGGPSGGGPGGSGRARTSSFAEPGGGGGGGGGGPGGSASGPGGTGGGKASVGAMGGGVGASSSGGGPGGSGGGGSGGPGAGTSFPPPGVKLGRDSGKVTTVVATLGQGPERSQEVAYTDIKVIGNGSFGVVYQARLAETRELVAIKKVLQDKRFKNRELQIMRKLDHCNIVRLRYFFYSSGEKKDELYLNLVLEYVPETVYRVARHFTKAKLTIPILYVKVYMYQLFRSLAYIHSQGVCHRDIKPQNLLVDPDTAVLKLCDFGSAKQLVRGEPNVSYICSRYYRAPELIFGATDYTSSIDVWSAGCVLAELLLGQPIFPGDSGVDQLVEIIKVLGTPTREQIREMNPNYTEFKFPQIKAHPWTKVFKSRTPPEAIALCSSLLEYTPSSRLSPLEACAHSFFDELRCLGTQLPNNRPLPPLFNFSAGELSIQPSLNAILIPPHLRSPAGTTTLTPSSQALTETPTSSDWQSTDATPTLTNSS
# Chain of Casein kinase I isoform alpha (P48729 2-337 limits assumed): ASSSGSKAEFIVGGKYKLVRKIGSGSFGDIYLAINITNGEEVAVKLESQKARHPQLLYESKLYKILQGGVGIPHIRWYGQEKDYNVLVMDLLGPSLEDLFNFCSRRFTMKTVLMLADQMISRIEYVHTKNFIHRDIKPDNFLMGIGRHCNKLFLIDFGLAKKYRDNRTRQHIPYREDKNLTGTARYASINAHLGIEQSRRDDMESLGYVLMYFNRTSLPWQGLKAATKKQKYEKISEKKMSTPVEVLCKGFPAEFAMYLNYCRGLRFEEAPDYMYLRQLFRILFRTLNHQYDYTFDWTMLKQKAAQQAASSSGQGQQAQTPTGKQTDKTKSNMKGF
# Chain of Ribosomal protein S6 kinase alpha-3 (P51812 whole entry): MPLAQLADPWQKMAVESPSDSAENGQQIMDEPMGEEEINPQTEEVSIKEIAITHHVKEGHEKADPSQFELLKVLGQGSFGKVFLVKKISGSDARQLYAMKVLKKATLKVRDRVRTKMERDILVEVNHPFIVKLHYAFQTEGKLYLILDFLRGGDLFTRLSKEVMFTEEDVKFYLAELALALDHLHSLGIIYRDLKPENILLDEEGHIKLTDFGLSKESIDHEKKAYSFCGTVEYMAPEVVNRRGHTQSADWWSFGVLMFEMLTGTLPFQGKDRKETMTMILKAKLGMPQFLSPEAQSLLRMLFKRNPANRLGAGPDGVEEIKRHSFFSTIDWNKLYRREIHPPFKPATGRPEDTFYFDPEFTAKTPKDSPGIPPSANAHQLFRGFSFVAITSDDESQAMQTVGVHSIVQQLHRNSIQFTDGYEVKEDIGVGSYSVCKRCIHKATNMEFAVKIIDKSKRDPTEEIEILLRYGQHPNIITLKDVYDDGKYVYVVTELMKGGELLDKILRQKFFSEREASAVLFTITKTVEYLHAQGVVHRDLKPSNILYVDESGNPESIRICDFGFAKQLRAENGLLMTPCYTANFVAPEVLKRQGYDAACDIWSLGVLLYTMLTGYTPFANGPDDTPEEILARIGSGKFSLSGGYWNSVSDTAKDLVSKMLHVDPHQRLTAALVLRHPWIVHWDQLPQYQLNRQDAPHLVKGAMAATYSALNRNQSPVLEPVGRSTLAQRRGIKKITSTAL
# Chain of Serine/threonine-protein kinase SBK1 (Homo sapiens) (Q52WX2 whole entry): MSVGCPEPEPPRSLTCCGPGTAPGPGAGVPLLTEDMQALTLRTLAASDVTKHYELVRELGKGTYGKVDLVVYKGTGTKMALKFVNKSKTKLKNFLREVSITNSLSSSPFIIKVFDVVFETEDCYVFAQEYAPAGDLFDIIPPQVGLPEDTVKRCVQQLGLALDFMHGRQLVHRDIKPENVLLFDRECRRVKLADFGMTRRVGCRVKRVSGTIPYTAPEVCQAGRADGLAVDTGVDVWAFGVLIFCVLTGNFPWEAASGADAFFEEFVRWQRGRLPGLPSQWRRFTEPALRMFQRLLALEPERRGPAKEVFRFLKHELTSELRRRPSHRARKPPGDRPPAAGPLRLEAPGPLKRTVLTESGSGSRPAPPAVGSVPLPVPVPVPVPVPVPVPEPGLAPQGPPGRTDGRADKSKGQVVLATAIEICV
# Chain of Protein-tyrosine kinase 6 (Q13882 whole entry, looked up): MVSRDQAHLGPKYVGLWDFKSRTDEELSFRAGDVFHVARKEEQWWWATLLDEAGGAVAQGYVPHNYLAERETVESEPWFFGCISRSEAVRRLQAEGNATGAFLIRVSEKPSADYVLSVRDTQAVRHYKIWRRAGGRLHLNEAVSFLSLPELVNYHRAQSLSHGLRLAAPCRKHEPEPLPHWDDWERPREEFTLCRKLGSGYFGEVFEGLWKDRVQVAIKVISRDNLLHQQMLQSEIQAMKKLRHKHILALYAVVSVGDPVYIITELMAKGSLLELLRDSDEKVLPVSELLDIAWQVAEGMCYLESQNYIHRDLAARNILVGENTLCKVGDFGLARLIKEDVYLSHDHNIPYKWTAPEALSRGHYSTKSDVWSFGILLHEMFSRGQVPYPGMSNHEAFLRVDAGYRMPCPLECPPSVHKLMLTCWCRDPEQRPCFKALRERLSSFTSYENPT
structure (smiles),measurement,setting,value
CCc1ccccc1C(=O)Nc1n[nH]c2c(C)c(F)c(C3C(C#N)=C(C)N(C)C(C)=C3C#N)cc12 [BAY-3827],% of inhibition,[1],78.3%
COc1cc(Nc2nc(C)cc(-c3cnn4nc(OC)ccc34)n2)cc(C(F)(F)F)c1,% of control,[2],66%
CC(=O)Nc1cccc(-n2c(=O)n(C3CC3)c(=O)c3c(Nc4ccc(I)cc4F)n(C)c(=O)c(C)c32)c1,% of control,[3],99%
O=C(NOC[C@H](O)CO)c1ccc(F)c(F)c1Nc1ccc(I)cc1F,% of control,[4],46%
same,% of control,[5],100%
CC(=O)c1cc(-c2ccccc2OCC2CC2)c2ncccn12,% of control,[6],84%
CC[C@@H]1[C@H](F)C(=O)N[C@@H]1COc1nccc2cc(C(N)=O)c(OC)cc12 [ZIMLOVISERTIB],% of inhibition,[7],2.1%
same,% of inhibition,[8],-10.7%
same,% of inhibition,[9],-8.62%
O[C@H]1CC[C@H](Nc2ncc3nc(Nc4c(F)cc(F)cc4F)n([C@H]4CCOC4)c3n2)CC1,% of control,[10],73%
C=CC(=O)Nc1cccc(C(=O)Nc2ccc(Nc3cc(-c4[nH]c(SC)nc4C)ccn3)cc2)c1,% of control,[11]; at 1 µM,91%
same,% of control,[11]; at 5 µM,92%
